PubChem BioAssay AID248 (DTP/NCI, 2004)
“And” between values parts separate entries of the source, which are not always exact repeats. Identical values can stand only once. Toxic doses and inconclusive results are not listed. No stated cut-off is given here; in the data, active means T/C of 150% or more; inactive means T/C below 125%.

Tested on: L1210 leukemia ip in BDF1 mice, survival T/C
Experiment: NCI In Vivo Anticancer Drug Screen. Data for tumor model L1210 Leukemia (intraperitoneal) in B6D2F1 (BDF1) mice
Details: endpoint: mean survival time, higher = longer survival
Summary of the method: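 Mice bearing the transplanted tumor received compound or vehicle. Survival of the treated group was divided by that of the vehicle-treated control group to give the ratio.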

[1] = dose: 100.0 mg/kg/injection, schedule: Q01DX009 (ip), vehicle: saline with Tween-80
[2] = dose: 100.0 mg/kg/injection, schedule: Q04DX003 (ip), vehicle: saline with Tween-80
[3] = dose: 200.0 mg/kg/injection, schedule: Q01DX009 (ip), vehicle: saline with Tween-80
[4] = dose: 200.0 mg/kg/injection, schedule: Q04DX003 (ip), vehicle: saline with Tween-80
[5] = dose: 400.0 mg/kg/injection, schedule: Q01DX009 (ip), vehicle: saline with Tween-80
[6] = dose: 400.0 mg/kg/injection, schedule: Q04DX003 (ip), vehicle: saline with Tween-80
[7] = dose: 100.0 mg/kg/injection, schedule: Q01DX001 (ip), vehicle: carboxymethylcellulose (CMC)
[8] = dose: 200.0 mg/kg/injection, schedule: Q01DX001 (ip), vehicle: carboxymethylcellulose (CMC)
[9] = dose: 400.0 mg/kg/injection, schedule: Q01DX001 (ip), vehicle: carboxymethylcellulose (CMC)
[10] = dose: 100.0 mg/kg/injection, schedule: Q04DX003 (ip), vehicle: Klucel (hydroxypropylcellulose) (HPC)
[11] = dose: 200.0 mg/kg/injection, schedule: Q04DX003 (ip), vehicle: Klucel (hydroxypropylcellulose) (HPC)
[12] = dose: 400.0 mg/kg/injection, schedule: Q04DX003 (ip), vehicle: Klucel (hydroxypropylcellulose) (HPC)
[13] = dose: 25.0 mg/kg/injection, schedule: Q04DX003 (ip), vehicle: saline
[14] = dose: 50.0 mg/kg/injection, schedule: Q04DX003 (ip), vehicle: saline
[15] = dose: 100.0 mg/kg/injection, schedule: Q04DX003 (ip), vehicle: acetone
[16] = dose: 200.0 mg/kg/injection, schedule: Q04DX003 (ip), vehicle: acetone
[17] = dose: 400.0 mg/kg/injection, schedule: Q04DX003 (ip), vehicle: acetone
[18] = dose: 100.0 mg/kg/injection, schedule: Q01DX001 (ip), vehicle: saline
[19] = dose: 200.0 mg/kg/injection, schedule: Q01DX001 (ip), vehicle: saline
[20] = dose: 400.0 mg/kg/injection, schedule: Q01DX001 (ip), vehicle: saline

Measured: T/C

CCCCCCCCCCCCCCCC(=O)N(CCCCN(C)C)CCCCN(C)C
inactive: dose: 2.0 mg/kg/injection, schedule: Q01DX009 (ip), vehicle: carboxymethylcellulose (CMC) 97 % of control | dose: 4.0 mg/kg/injection, schedule: Q01DX009 (ip), vehicle: carboxymethylcellulose (CMC) 98 % of control | dose: 6.0 mg/kg/injection, schedule: Q01DX009 (ip), vehicle: carboxymethylcellulose (CMC) 97 % of control

Cc1c(Cl)cccc1NC(=S)NC(=O)/C=C/c1ccccc1
inactive: dose: 50.0 mg/kg/injection, schedule: Q04DX003 (ip), vehicle: saline with Tween-80 96 % of control | dose: 100.0 mg/kg/injection, schedule: Q01DX001 (ip), vehicle: saline with Tween-80 90 % of control | [1] 98 % of control and 92 % of control | dose: 100.0 mg/kg/injection, schedule: Q04DX002 (ip), vehicle: saline with Tween-80 96 % of control and 87 % of control | [2] 93 % of control and 102 % of control | [3] 95 % of control and 98 % of control | dose: 200.0 mg/kg/injection, schedule: Q04DX002 (ip), vehicle: saline with Tween-80 107 % of control and 116 % of control | [4] 101 % of control | dose: 400.0 mg/kg/injection, schedule: Q01DX001 (ip), vehicle: saline with Tween-80 93 % of control | [5] 95 % of control and 90 % of control | dose: 400.0 mg/kg/injection, schedule: Q04DX002 (ip), vehicle: saline with Tween-80 111 % of control and 112 % of control | [6] 102 % of control and 88 % of control

NNC(=O)c1ccc(Cl)c(Cl)c1
inactive: dose: 100.0 mg/kg/injection, schedule: Q01DX001 (ip), vehicle: Klucel (hydroxypropylcellulose) (HPC) 104 % of control | dose: 200.0 mg/kg/injection, schedule: Q01DX001 (ip), vehicle: Klucel (hydroxypropylcellulose) (HPC) 117 % of control | dose: 400.0 mg/kg/injection, schedule: Q01DX001 (ip), vehicle: Klucel (hydroxypropylcellulose) (HPC) 112 % of control

CC(C)[N+]1=C(/C=C/c2ccc3cccnc3c2O)C(C)(C)c2ccccc21
inactive: dose: 50.0 mg/kg/injection, schedule: Q01DX001 (ip), vehicle: carboxymethylcellulose (CMC) 97 % of control | [7] 103 % of control | [8] 95 % of control | [9] 95 % of control

c1ccc(CNCCOB(OCCNCc2ccccc2)OCCNCc2ccccc2)cc1
inactive: dose: 100.0 mg/kg/injection, schedule: Q01DX009 (ip), vehicle: Klucel (hydroxypropylcellulose) (HPC) 94 % of control | [10] 98 % of control | dose: 200.0 mg/kg/injection, schedule: Q01DX009 (ip), vehicle: Klucel (hydroxypropylcellulose) (HPC) 94 % of control | [11] 111 % of control | dose: 400.0 mg/kg/injection, schedule: Q01DX009 (ip), vehicle: Klucel (hydroxypropylcellulose) (HPC) 97 % of control | [12] 95 % of control

NC(N)=N/N=C/c1ccc2c(c1)CCC2
inactive: dose: 12.5 mg/kg/injection, schedule: Q04DX003 (ip), vehicle: saline 101 % of control | [13] 97 % of control | [14] 97 % of control

O=C(O)C(Cl)C(Cl)c1ccccc1 (centres undefined)
inactive: dose: 75.0 mg/kg/injection, schedule: Q01DX001 (ip), vehicle: saline 98 % of control | dose: 150.0 mg/kg/injection, schedule: Q01DX001 (ip), vehicle: saline 98 % of control | dose: 300.0 mg/kg/injection, schedule: Q01DX001 (ip), vehicle: saline 101 % of control

CC(=O)c1ccc(O)cc1
inactive: dose: 100.0 mg/kg/injection, schedule: Q04DX002 (ip), vehicle: Klucel (hydroxypropylcellulose) (HPC) 114 % of control | dose: 200.0 mg/kg/injection, schedule: Q04DX002 (ip), vehicle: Klucel (hydroxypropylcellulose) (HPC) 96 % of control | dose: 400.0 mg/kg/injection, schedule: Q04DX002 (ip), vehicle: Klucel (hydroxypropylcellulose) (HPC) 96 % of control

CC1(C)CN(N=O)C(C)(C)CN1N=O
inactive: [15] 99 % of control | [16] 103 % of control | [17] 96 % of control

CCCCOC(=O)CC(=O)OC
inactive: dose: 100.0 mg/kg/injection, schedule: Q01DX009 (ip), vehicle: acetone 93 % of control | [15] 100 % of control | dose: 200.0 mg/kg/injection, schedule: Q01DX009 (ip), vehicle: acetone 90 % of control | [16] 103 % of control | dose: 400.0 mg/kg/injection, schedule: Q01DX009 (ip), vehicle: acetone 93 % of control | [17] 107 % of control

CCC[CH2][Sn]([Cl])([Cl])[CH2]CCC.c1ccncc1
inactive: dose: 3.0 mg/kg/injection, schedule: Q01DX009 (ip), vehicle: Klucel (hydroxypropylcellulose) (HPC) 93 % of control | dose: 6.0 mg/kg/injection, schedule: Q01DX009 (ip), vehicle: Klucel (hydroxypropylcellulose) (HPC) 107 % of control | dose: 12.0 mg/kg/injection, schedule: Q01DX009 (ip), vehicle: Klucel (hydroxypropylcellulose) (HPC) 92 % of control | dose: 12.5 mg/kg/injection, schedule: Q01DX009 (ip), vehicle: Klucel (hydroxypropylcellulose) (HPC) 87 % of control | dose: 12.5 mg/kg/injection, schedule: Q04DX002 (ip), vehicle: Klucel (hydroxypropylcellulose) (HPC) 91 % of control | dose: 25.0 mg/kg/injection, schedule: Q04DX002 (ip), vehicle: Klucel (hydroxypropylcellulose) (HPC) 106 % of control

CC1(C)CCN1Cc1ccccc1
inactive: dose: 12.0 mg/kg/injection, schedule: Q01DX001 (ip), vehicle: saline 98 % of control | dose: 12.0 mg/kg/injection, schedule: Q04DX003 (ip), vehicle: saline 95 % of control | dose: 12.5 mg/kg/injection, schedule: Q01DX009 (ip), vehicle: saline 95 % of control | dose: 25.0 mg/kg/injection, schedule: Q01DX001 (ip), vehicle: saline 100 % of control | dose: 25.0 mg/kg/injection, schedule: Q01DX009 (ip), vehicle: saline 101 % of control | [13] 101 % of control | dose: 50.0 mg/kg/injection, schedule: Q01DX001 (ip), vehicle: saline 96 % of control | dose: 50.0 mg/kg/injection, schedule: Q01DX009 (ip), vehicle: saline 123 % of control | [14] 96 % of control

Cc1nc2sc3c(c2c(=O)[nH]1)CCCC3
inactive: dose: 50.0 mg/kg/injection, schedule: Q01DX001 (ip), vehicle: saline sonified 122 % of control | dose: 100.0 mg/kg/injection, schedule: Q01DX001 (ip), vehicle: saline sonified 103 % of control | dose: 200.0 mg/kg/injection, schedule: Q01DX001 (ip), vehicle: saline sonified 101 % of control

CC1CCC2CON(C(C)(C)C)C2C1 (centres undefined)
inactive: dose: 50.0 mg/kg/injection, schedule: Q01DX009 (ip), vehicle: saline with Tween-80 106 % of control | [1] 107 % of control | [2] 103 % of control | [4] 97 % of control and 101 % of control | [6] 94 % of control

Nc1c(Br)cc2c(c1Br)C(=O)c1ccccc1-2
inactive: [7] 98 % of control | [8] 109 % of control | [9] 102 % of control

CS(=O)(=O)C(=C(N1CCCCC1)N1CCCCC1)S(=O)(=O)Cc1ccccc1
inactive: [18] 100 % of control | dose: 100.0 mg/kg/injection, schedule: Q01DX009 (ip), vehicle: saline 88 % of control | [19] 96 % of control | dose: 200.0 mg/kg/injection, schedule: Q01DX009 (ip), vehicle: saline 93 % of control | [20] 96 % of control

O=C(Sc1ccccc1-n1cccc1)c1ccccc1
inactive: [1] 109 % of control | [3] 100 % of control | [5] 102 % of control

CC1(C)CC(=O)c2c(cc3oc(=O)ccc3c2O)O1
inactive: [10] 102 % of control | [11] 105 % of control | [12] 98 % of control

Cn1cc[n+](C)c1
inactive: [18] 102 % of control | [19] 97 % of control | [20] 100 % of control

C=C(C)[C@@H]1CC[C@]2(C(=O)OC)CC[C@]3(C)[C@H](CC[C@@H]4[C@@]5(C)CC[C@H](O)C(C)(C)[C@@H]5CC[C@]43C)[C@@H]12
inactive: dose: 100.0 mg/kg/injection, schedule: Q04DX003 (ip), vehicle: alcohol 103 % of control | dose: 200.0 mg/kg/injection, schedule: Q04DX003 (ip), vehicle: alcohol 100 % of control | dose: 400.0 mg/kg/injection, schedule: Q04DX003 (ip), vehicle: alcohol 91 % of control
